Assay results as given in patent publication US20090143279A1 (priority 2007, published 2009).
Where two headings read alike, the source gives them in different places.

Tests used:
[1] = tested on: mitochondrial membrane potential; assay type: cell-based, mouse
[2] = tested on: reactive oxygen species; assay type: cell-based, mouse
[3] = tested on: OXPHOS gene expression; assay type: cell-based, mouse
[4] = tested on: nuOXPHOS transcripts; assay type: cell-based, mouse
[5] = tested on: mtOXPHOS transcripts; assay type: cell-based, mouse
[6] = tested on: cytochrome c; assay type: cell-based, mouse
[7] = tested on: C2C12 myotubes
[8] = tested on: cellular dehydrogenase activity
[9] = composite Z-score vs DMSO, Conc 20 μM
[10] = composite Z-score vs mock-treated (DMSO) wells, concentration of each compound in μM
[11] = composite Z-score vs mock-treated (DMSO) wells, Conc 20 μM
[12] = Table 7, C2C12 myotubes, 48 h, composite Z-score
[13] = normalized composite Z-score vs mock-treated (DMSO) wells, Conc 20 μM
[14] = 20 μM, composite Z-score vs DMSO
[15] = composite Z-score vs DMSO wells, Conc 20 μM
[16] = Conc 20 μM, normalized score vs mock-treated (DMSO) wells
[17] = Table 4, C2C12 myotubes, 48 h, composite Z-score

C[C@@H]1[C@H](O)[C@@H](C)/C=C/C=C/CC/C=C/C=C/C=C/C=C/C(O[C@H]2O[C@H](C)[C@@H](O)[C@H](N)[C@@H]2O)CC2O[C@](O)(CC(O)C(O)CCC(O)CC(O)CC(O)CC(=O)O[C@H]1C)CC(O)C2C(=O)O (stereo partly shown) [nystatin]
ΔΨm [1, 9]: −0.356
ROS [2, 9]: −0.043
GE-HTS [3, 9]: 0.326
nucOX [4, 9]: 0.284
mitoOX [5, 9]: 0.289
cyt c [6, 9]: −0.059
Viability [7, 9]: 0.794
MTT [8, 9]: 0.161

Nc1nc2c(ncn2[C@H]2C[C@H](O)[C@@H](CO)O2)c(=O)[nH]1 [deoxyguanosine]
ΔΨm [1, 9]: −0.268
ROS [2, 9]: −0.110
GE-HTS [3, 9]: −0.001
nucOX [4, 9]: −0.090
mitoOX [5, 9]: 0.245
cyt c [6, 9]: 0.695
Viability [7, 9]: −0.819
MTT [8, 9]: −0.703

O=C(CC[N+](=O)[O-])OC[C@H]1O[C@@H](O)[C@H](OC(=O)CC[N+](=O)[O-])[C@@H](OC(=O)CC[N+](=O)[O-])[C@@H]1OC(=O)CC[N+](=O)[O-] [endecaphyllin X]
ΔΨm [1, 10]: 0.142
ROS [2, 10]: −0.292
GE-HTS [3, 10]: −0.660
nucOX [4, 10]: −0.566
mitoOX [5, 10]: −0.741
cyt c [6, 10]: −0.219
Viability [7, 10]: 0.158
MTT [8, 10]: −1.007

C[C@H]1CC[C@]2(NC1)O[C@H]1C[C@H]3[C@@H]4CC[C@H]5C[C@@H](O)CC[C@]5(C)[C@H]4CC[C@]3(C)[C@H]1[C@@H]2C [tomatidine]
ΔΨm [1, 9]: −0.425
ROS [2, 9]: 1.323
GE-HTS [3, 9]: −1.375
nucOX [4, 9]: −1.473
mitoOX [5, 9]: −0.857
cyt c [6, 9]: 0.913
cyt c [6, 10]: 1.135
Viability [7, 9]: 0.490
MTT [8, 9]: −1.376

C[C@H]1CC[C@]2(NC1)O[C@H]1C[C@H]3[C@@H]4CC[C@H]5C[C@@H](O[C@@H]6O[C@H](CO)[C@H](O[C@@H]7O[C@H](CO)[C@@H](O)[C@H](O[C@@H]8OC[C@@H](O)[C@H](O)[C@H]8O)[C@H]7O[C@@H]7O[C@H](CO)[C@@H](O)[C@H](O)[C@H]7O)[C@H](O)[C@H]6O)CC[C@]5(C)[C@H]4CC[C@]3(C)[C@H]1[C@@H]2C [tomatine]
ΔΨm [1, 9]: −2.423
ROS [2, 9]: −2.084
GE-HTS [3, 9]: −2.151
nucOX [4, 9]: −2.158
mitoOX [5, 9]: −1.725
cyt c [6, 9]: −3.979
Viability [7, 9]: −4.793
MTT [8, 9]: −4.122

C=C1[C@@H]([C@@]2(C)[C@@H](OC(C)=O)CC(=O)O[C@](C)(COC(C)=O)[C@@H]2C(=O)OC)[C@@H](OC=O)[C@H](OC(=O)[C@H](O)[C@H](C)CC)[C@@]2(C)[C@H](c3ccoc3)CC(=O)[C@]12O [Prieurianin, reference compound]
ΔΨm [1, 11]: 1.108
ROS [2, 11]: −1.358
GE-HTS [3, 11]: 2.020
nucOXPHOS Z [4, 12]: 1.90
nucOX [4, 11]: 1.896
mito-OXPHOS Z [5, 12]: 1.93
mitoOX [5, 11]: 1.931
cyt c [6, 11]: −1.620
Viability [7, 11]: −0.894
MTT [8, 11]: −1.263

C=C/C(C)=C\CC1C(C)(O)CCC2C(C)(C)CCCC21C (stereo not shown) [abienol]
ΔΨm [1, 13]: 0.334
ROS [2, 13]: 2.467
GE-HTS [3, 13]: 0.498
nucOX [4, 13]: 0.091
mitoOX [5, 13]: 1.214
cyt c [6, 13]: 0.211
Viability [7, 13]: −0.199
MTT [8, 13]: 0.338

CC1COc2c(N3CCN(C)CC3)c(F)cc3c(=O)c(C(=O)O)cn1c23 (stereo not shown) [ofloxacin]
ΔΨm [1]: −0.891
ΔΨm [1, 14]: −0.281
ROS [2]: 0.908
ROS [2, 14]: −0.182
GE-HTS [3]: 0.182
GE-HTS [3, 14]: −0.458
nucOX [4]: 0.059
nucOX [4, 14]: −0.622
mitoOX [5]: 0.353
mitoOX [5, 14]: −0.041
cyt c [6]: 0.492
cyt c [6, 14]: 0.309
Viability [7]: −0.425
Viability [7, 14]: −1.148
MTT [8]: −0.967
MTT [8, 14]: −1.248

CC(=O)O[C@@H]1C[C@H]2C(C)(C)[C@H](O)C[C@H](O)[C@]2(C)[C@H]2CC[C@@]3(C)[C@H](c4ccoc4)OC(=O)[C@H]4O[C@]43[C@@]21C [1,3-dideacetylkhivorin]
ΔΨm [1, 9]: 0.051
ROS [2, 9]: 0.963
GE-HTS [3, 9]: −0.693
nucOX [4, 9]: −0.349
mitoOX [5, 9]: −1.275
cyt c [6, 9]: 0.887
Viability [7, 9]: 0.507
MTT [8, 9]: −0.622

Cc1cc(O)c(C=O)c2c1C(=O)Oc1c(C)c(O)c3c(c1O2)C(O)OC3=O (stereo not shown) [norstictic acid]
ΔΨm [1, 9]: −0.628
ΔΨm [1, 11]: 0.903
ROS [2, 9]: −0.426
ROS [2, 11]: 0.560
GE-HTS [3, 9]: −0.800
GE-HTS [3, 11]: 0.518
nucOX [4, 9]: −0.639
nucOX [4, 11]: 0.774
mitoOX [5, 9]: −1.023
mitoOX [5, 11]: −0.148
cyt c [6, 9]: 0.467
cyt c [6, 11]: 0.471
Viability [7, 9]: 0.730
Viability [7, 11]: −0.899
MTT [8, 9]: −0.613
MTT [8, 11]: −0.567

NCCNC(=O)c1ccc(Cl)cc1 [N-(2-aminoethyl)-4-chlorobenzamide]
ΔΨm [1, 15]: −1.051
ROS [2, 15]: 1.036
GE-HTS [3, 15]: 0.065
nucOX [4, 15]: 0.175
mitoOX [5, 15]: −0.205
cyt c [6, 15]: −0.423
Viability [7, 15]: −1.090
MTT [8, 15]: −0.669

COC(=O)[C@@H]1OC(=O)C2OC23[C@@]1(C)CCC1[C@]2(C)C(C[C@@H](O)[C@]13C)C(C)(C)[C@H](OC(C)=O)C[C@@H]2OC(C)=O (stereo partly shown)
ΔΨm [1, 11]: −0.579
ROS [2, 11]: 0.177
GE-HTS [3, 11]: −0.376
nucOX [4, 11]: −0.485
mitoOX [5, 11]: −0.039
cyt c [6, 11]: 1.004
Viability [7, 11]: 0.474
MTT [8, 11]: −0.427

O=c1c(O)cccc2c([C@H]3Oc4cc(O)cc(O)c4C[C@H]3O)cc(O)c(O)c12 [theaflavanin]
ΔΨm (composite Z-score) [1, 16]: −2.074
ROS (composite Z-score) [2, 16]: −0.040
GE-HTS (composite Z-score) [3, 16]: −0.695
nucOX (composite Z-score) [4, 16]: −0.764
mitoOX (composite Z-score) [5, 16]: −0.333
cyt c (composite Z-score) [6, 16]: −0.166
Viability (composite Z-score) [7, 16]: −1.349
MTT (composite Z-score) [8, 16]: −0.665

Cc1cc(O)c2c(c1O)C(=O)c1c(O)cc(C)c(O)c1C2=O [1,4,5,8-tetrahydroxy-2,6-dimethylanthroquinone, reference compound]
ΔΨm ([1]; Table 4, C2C12 myotubes, 48 h, JC-1, composite Z-score): −0.662
ΔΨm [1, 9]: −0.662
ROS [2, 17]: 0.772
ROS [2, 9]: 0.772
GE-HTS [3, 9]: −1.123
nucOX [4, 9]: −1.178
mitoOX [5, 9]: −0.739
cyt c [6, 9]: 0.005
Viability [7, 17]: −0.853
Viability [7, 9]: −0.853
MTT [8, 17]: −0.344
MTT [8, 9]: −0.344

C[C@H](CCC(=O)O)[C@H]1CC[C@H]2[C@@H]3CC[C@H]4C[C@H](O)CC[C@]4(C)[C@H]3C[C@H](O)[C@]12C [allodeoxycholic acid]
ΔΨm [1, 9]: 0.404
ROS [2, 9]: −0.164
GE-HTS [3, 9]: −0.905
nucOX [4, 9]: −0.903
mitoOX [5, 9]: −0.773
cyt c [6, 9]: −2.903
Viability [7, 9]: −1.161
MTT [8, 9]: −2.126

Cc1cc(=O)c2c(O)c3c(cc2o1)OC(C)(C)CC3 [dihydrospatheliachromene]
ΔΨm [1, 11]: −0.174
ROS [2, 11]: 1.483
GE-HTS [3, 11]: −0.666
nucOX [4, 11]: −0.620
mitoOX [5, 11]: −0.569
cyt c [6, 11]: 0.068
Viability [7, 11]: −0.538
MTT [8, 11]: −1.802
